# Assay results taken from patent US20100226853A1 (priority 2007, published 2010).
# Where two headings read alike, the source gives them in different places.
# Key:
# [1] = Octanol/water partition coefficient determination; format: physicochemical; details: n-octanol/water
# SRC = SRC (Homo sapiens, UniProt P12931); format: biochemical; details: read-out: IC50, Src protein
# Protocol: (§1) Kinase was preincubated with inhibitor at 37° C. for 10 min prior to starting the reaction upon addition of ATP; Assay was carried out in 384 well clear plates (Corning) and absorbance was measured on SpectraMax plate reader (Molecular Devices). Reaction rates were plotted against inhibitor concentration and fitted using SigmaPlot 9.0 (Systat Software Inc.).
# EphB4 = molecular target: T1, EphB4 (Homo sapiens, UniProt P54760); test: QuickScout ELISA kinase panel; format: biochemical; details: Compound 5 at 10 nM
# T1 construct: purchased Carna Biosciences (QuickScout service)
# T1 sequence (P54760 16-987): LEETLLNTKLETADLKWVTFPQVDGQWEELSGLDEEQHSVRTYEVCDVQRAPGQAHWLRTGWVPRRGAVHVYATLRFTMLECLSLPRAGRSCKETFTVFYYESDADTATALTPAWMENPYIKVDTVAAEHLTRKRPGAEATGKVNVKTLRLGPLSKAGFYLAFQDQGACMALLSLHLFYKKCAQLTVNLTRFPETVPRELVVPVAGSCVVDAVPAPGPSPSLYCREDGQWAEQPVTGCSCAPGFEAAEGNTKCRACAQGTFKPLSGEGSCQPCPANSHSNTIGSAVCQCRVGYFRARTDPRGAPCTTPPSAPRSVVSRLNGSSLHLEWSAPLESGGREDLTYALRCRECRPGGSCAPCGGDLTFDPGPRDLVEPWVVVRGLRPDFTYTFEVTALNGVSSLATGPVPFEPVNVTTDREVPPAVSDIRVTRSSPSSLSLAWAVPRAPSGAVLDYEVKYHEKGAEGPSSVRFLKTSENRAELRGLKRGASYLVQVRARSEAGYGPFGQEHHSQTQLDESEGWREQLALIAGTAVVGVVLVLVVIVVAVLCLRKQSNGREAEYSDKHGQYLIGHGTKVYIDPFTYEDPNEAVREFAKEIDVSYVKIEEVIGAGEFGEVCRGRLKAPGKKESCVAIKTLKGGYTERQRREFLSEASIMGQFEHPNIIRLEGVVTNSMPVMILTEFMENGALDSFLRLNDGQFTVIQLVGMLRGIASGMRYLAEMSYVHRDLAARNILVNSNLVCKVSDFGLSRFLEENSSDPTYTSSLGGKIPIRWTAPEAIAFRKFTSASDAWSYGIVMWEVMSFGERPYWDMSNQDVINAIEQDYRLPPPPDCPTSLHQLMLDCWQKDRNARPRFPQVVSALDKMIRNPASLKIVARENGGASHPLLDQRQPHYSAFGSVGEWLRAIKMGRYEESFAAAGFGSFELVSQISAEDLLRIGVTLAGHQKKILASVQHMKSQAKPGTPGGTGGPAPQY
# Excerpt: (§2) . […] An ELISA-based assay was used in which the phosphorylation of an oligopeptide substrate was detected by an HRP-conjugated anti-p-Tyr (PY20) probe. […]. The data appears in Table 2 in Example 3.
# TEC = molecular target: T2, TEC (Homo sapiens, UniProt P42680); test: QuickScout ELISA kinase panel; format: biochemical; details: Compound 5 at 10 nM
# T2 construct: purchased Carna Biosciences (Kobe, Japan), QuickScout service
# T2 sequence (P42680 1-631): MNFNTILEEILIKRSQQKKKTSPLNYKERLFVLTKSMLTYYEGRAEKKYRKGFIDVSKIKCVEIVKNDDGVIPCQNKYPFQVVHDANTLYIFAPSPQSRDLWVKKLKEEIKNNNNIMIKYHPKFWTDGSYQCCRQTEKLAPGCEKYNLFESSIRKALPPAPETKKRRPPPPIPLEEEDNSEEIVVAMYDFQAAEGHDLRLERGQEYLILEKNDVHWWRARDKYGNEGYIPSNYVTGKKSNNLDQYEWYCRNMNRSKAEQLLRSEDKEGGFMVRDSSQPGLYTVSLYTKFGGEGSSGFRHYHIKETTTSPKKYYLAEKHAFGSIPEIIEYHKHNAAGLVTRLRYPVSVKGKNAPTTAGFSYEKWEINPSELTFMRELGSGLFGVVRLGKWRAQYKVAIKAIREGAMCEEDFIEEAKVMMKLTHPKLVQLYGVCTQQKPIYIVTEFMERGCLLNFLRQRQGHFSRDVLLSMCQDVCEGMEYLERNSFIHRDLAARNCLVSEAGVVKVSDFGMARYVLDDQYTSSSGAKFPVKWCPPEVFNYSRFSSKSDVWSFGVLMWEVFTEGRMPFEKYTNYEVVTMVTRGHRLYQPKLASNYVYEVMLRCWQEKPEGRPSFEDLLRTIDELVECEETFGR
# Excerpt: as §2
# TYRO3 = molecular target: T3, TYRO3 (Homo sapiens, UniProt Q06418); test: QuickScout ELISA kinase panel; format: biochemical; details: Compound 5 at 10 nM
# T3 construct: purchased Carna Biosciences (QuickScout service)
# T3 sequence (Q06418 41-890): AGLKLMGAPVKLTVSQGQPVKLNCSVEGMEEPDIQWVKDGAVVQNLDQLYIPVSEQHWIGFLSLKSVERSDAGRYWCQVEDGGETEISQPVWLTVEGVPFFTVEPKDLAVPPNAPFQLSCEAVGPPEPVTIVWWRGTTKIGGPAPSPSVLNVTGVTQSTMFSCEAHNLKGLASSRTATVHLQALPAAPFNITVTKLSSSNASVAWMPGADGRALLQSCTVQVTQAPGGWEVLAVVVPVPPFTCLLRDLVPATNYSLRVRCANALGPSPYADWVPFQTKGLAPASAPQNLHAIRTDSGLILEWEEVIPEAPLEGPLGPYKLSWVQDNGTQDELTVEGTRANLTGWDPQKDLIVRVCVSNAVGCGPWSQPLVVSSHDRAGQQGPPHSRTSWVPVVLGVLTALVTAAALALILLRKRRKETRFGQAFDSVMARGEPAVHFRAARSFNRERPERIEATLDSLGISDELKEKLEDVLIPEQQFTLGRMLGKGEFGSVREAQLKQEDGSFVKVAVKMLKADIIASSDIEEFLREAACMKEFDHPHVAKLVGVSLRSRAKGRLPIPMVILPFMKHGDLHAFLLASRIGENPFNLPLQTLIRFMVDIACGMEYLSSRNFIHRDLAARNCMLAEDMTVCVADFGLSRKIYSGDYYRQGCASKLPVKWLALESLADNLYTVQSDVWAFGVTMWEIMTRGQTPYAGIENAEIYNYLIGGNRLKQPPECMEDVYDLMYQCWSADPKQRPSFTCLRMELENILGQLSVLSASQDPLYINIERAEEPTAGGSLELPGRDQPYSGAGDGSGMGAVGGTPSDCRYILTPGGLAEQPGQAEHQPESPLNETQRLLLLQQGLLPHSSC
# Excerpt: as §2
# MET = molecular target: T4, MET (Homo sapiens, UniProt P08581); test: QuickScout ELISA kinase panel; format: biochemical; details: Compound 5 at 10 nM
# T4 construct: purchased Carna Biosciences (QuickScout service)
# Excerpt: as §2
# JAK3 = molecular target: T5, JAK3 (Homo sapiens, UniProt P52333); test: QuickScout ELISA kinase panel; format: biochemical; details: Compound 5 at 10 nM
# T5 construct: purchased Carna Biosciences (QuickScout service)
# T5 sequence (P52333 whole entry): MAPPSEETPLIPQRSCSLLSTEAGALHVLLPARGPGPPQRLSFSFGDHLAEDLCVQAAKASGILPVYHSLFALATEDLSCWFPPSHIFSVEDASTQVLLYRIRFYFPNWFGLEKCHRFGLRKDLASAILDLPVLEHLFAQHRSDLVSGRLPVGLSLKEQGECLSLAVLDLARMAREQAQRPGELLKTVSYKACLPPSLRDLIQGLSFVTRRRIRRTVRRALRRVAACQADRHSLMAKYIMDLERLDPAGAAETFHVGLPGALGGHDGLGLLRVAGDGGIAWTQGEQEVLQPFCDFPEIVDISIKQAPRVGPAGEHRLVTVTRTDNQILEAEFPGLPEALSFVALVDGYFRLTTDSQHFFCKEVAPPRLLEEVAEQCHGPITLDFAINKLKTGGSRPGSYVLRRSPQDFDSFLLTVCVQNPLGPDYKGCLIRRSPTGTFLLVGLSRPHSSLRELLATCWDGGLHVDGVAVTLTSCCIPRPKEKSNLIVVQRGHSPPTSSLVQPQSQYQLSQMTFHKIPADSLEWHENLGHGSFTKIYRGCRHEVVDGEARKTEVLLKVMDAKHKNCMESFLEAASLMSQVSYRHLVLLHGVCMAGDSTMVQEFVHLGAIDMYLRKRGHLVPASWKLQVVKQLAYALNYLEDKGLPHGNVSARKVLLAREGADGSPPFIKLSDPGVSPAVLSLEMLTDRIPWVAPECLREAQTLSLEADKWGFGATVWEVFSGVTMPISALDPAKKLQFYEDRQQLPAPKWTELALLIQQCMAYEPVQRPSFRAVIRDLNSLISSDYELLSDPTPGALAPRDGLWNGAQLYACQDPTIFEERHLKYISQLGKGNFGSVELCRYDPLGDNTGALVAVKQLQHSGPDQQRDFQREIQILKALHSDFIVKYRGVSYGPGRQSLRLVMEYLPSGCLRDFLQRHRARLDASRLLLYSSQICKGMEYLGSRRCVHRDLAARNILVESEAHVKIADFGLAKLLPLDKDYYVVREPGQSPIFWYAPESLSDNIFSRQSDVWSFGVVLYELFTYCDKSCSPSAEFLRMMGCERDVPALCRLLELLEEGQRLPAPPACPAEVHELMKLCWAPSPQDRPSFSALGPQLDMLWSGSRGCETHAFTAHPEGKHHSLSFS
# Excerpt: as §2
# ABL [2] = molecular target: T6, ABL (Homo sapiens, UniProt P00519); format: biochemical; design: purchased Invitrogen; details: mean of three experiments; read-out: IC50, Abl protein
# T6 sequence (P00519 whole entry): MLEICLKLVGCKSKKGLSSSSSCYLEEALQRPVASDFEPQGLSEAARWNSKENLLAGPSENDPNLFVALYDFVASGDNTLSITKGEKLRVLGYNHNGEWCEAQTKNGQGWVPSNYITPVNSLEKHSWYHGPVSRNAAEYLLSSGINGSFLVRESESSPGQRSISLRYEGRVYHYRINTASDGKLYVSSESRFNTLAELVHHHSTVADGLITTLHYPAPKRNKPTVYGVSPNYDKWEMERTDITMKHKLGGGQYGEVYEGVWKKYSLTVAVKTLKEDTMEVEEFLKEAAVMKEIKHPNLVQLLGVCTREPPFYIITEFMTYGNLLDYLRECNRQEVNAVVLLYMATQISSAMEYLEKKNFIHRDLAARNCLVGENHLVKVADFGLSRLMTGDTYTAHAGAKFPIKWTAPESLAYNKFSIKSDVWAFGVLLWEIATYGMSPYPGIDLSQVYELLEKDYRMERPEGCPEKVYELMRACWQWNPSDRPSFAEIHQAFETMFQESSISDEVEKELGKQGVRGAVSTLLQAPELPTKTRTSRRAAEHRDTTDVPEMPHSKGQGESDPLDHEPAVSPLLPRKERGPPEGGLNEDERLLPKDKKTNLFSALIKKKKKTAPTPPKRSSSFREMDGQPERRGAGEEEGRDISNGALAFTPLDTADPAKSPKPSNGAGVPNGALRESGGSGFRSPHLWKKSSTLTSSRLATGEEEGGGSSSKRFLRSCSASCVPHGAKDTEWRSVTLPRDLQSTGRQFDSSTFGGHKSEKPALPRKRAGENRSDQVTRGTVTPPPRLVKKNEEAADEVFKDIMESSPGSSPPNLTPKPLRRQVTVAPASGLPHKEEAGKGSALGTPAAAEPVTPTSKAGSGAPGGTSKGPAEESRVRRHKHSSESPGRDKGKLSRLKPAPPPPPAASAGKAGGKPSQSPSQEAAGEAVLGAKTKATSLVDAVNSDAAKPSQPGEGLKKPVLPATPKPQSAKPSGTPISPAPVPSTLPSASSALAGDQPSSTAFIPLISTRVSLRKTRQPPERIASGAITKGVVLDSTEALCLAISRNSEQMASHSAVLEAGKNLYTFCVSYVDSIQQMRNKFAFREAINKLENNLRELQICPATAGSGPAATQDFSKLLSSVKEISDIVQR
# Protocol: as §1
# ABL [3] = molecular target: T6, ABL; test: QuickScout ELISA kinase panel; format: biochemical; design: purchased Carna Biosciences (QuickScout service)
# Excerpt: An ELISA-based assay was used in which the phosphorylation of an oligopeptide substrate was detected by an HRP-conjugated anti-p-Tyr (PY20) probe.
# SRC, sequence (P12931 whole entry): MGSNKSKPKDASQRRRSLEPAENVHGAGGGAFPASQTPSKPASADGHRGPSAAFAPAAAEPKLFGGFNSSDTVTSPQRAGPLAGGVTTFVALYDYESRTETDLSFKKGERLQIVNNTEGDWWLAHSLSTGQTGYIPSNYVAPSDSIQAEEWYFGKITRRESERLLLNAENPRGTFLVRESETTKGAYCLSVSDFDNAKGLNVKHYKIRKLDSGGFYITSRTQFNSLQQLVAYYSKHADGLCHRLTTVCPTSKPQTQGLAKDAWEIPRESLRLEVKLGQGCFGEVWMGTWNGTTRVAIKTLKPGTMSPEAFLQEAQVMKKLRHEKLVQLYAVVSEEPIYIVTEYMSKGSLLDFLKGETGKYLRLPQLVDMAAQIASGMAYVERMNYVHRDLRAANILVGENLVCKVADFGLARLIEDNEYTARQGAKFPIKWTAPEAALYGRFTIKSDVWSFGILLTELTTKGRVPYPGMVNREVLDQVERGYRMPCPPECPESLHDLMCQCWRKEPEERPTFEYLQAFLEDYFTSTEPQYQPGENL
structure (smiles),measurement,setting,value
"Cc1nc(Nc2ncc(C(=O)Nc3c(C)cccc3Cl)s2)cc(N2CCN(CCF)CC2)n1 [Compound 5, N-(2-Chloro-6-methylphenyl)-2-(6-(4-(2-fluoroethyl)piperazin-1-yl)-2-methylpyrimidin-4-ylamino)thiazole-5-carboxamide]",logD at 2 h,[1],2.1 ± 0.6
same,IC50,SRC,3.5 ± 2.2 nM
same,inhibition at 0.01 µM,EphB4,97%
same,inhibition at 0.01 µM,TEC,98.1%
same,inhibition at 0.01 µM,TYRO3,23.1%
same,inhibition at 0.01 µM,MET,7.2%
same,inhibition at 0.01 µM,JAK3,16%
same,IC50,ABL [2],9.1 ± 0.8 nM
same,IC50,ABL [3],< 2 nM
same,inhibition at 0.01 µM,ABL [3]; Compound 5 at 10 nM,> 97%
same,"% Inhibition of Kinase Activity, ABL","ABL [3]; Compound 5 at 10 nM, 0.01 µM",99.4%
